Data from patent US8076297B2, “Pharmaceutical composition containing polypeptide fragments of serralysins” (Centro De Ingenieria Genetica Y Biotecnologia, priority 2004, dated 2011).

test system: HEp-2 cells; assay: Anti-proliferative assay on HEp-2 cells, MTT method; assay type: cell-based, human; conditions: 3 μg/mL
Experimental: For the characterization of the antiproliferative activity of MG2327 “in vitro” a panel of human cell lines was evaluated (table 1). A total of 2000 cells, except for PBMC (20000), were seeded in 96 wells culture wells, and different concentrations of MG2327 were added. After 72 hours, the number of survival cells was estimated by addition of MTT (Skehan, P., Storeng, R., Scudiero, D., Monks, A., Mcmahon, J., Vistica, D., Warren, J. T., Bokesch, H., Kenney, S. and BOYD, M. R. 1990. J Natl Cancer Inst. 82:1107). The soluble formazan products were detected at 540 nm in a multiscan plate reader.

Molecule	proliferation [%]
COc1cccc2c1C(=O)c1c(O)c3c(c(O)c1C2=O)C[C@@](O)(C(=O)CO)C[C@@H]3O[C@H]1C[C@H](N)[C@H](O)[C@H](C)O1 [DXR, Doxorubicine, reference compound]	40
CC[C@]1(O)C[C@@H]2CN(CCc3c([nH]c4ccccc34)[C@@](C(=O)OC)(c3cc4c(cc3OC)N(C)[C@H]3[C@@](O)(C(=O)OC)[C@H](OC(C)=O)[C@]5(CC)C=CCN6CC[C@]43[C@@H]65)C2)C1 [Vinvlastine, reference compound]	40
N.N.[Cl][Pt][Cl] [Cisplatin, reference compound]	40
CC(=O)O[C@H]1C(=O)[C@@]2(C)[C@H]([C@H](OC(=O)c3ccccc3)[C@]3(O)C[C@H](OC(=O)[C@H](O)[C@@H](NC(=O)c4ccccc4)c4ccccc4)C(C)=C1C3(C)C)[C@]1(OC(C)=O)CO[C@@H]1C[C@@H]2O [Taxol, reference compound]	40
CC[C@]1(O)C[C@H]2CN(CCc3c([nH]c4ccccc34)[C@@](C(=O)OC)(c3cc4c(cc3OC)N(C=O)[C@H]3[C@@](O)(C(=O)OC)[C@H](OC(C)=O)[C@]5(CC)C=CCN6CC[C@]43[C@@H]65)C2)C1 [Vincristine, reference compound]	40

same assay, conditions: same conditions as 3 μg/mL comparison

Molecule	effect on proliferation
CN(Cc1cnc2nc(N)nc(N)c2n1)c1ccc(C(=O)N[C@@H](CCC(=O)O)C(=O)O)cc1 [Metotrexate, reference compound]	do not showed effect
Nc1ccn([C@@H]2O[C@H](CO)[C@@H](O)[C@@H]2O)c(=O)n1 [Ara C, reference compound]	do not showed effect
O=P1(N(CCCl)CCCl)NCCCO1 (stereo not drawn) [Ciclophosfamide, reference compound]	do not showed effect
Bleomicine [reference compound]	do not showed effect
